Measured values from PubChem BioAssay (NCI).
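In this assay, cells in 96-well plates receive the compound at five concentrations for 48 hours. Endpoints are linearly interpolated between the surrounding concentrations. The concentration for full growth arrest is given as TGI.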

Columns and labels:
Assay in all cases: NCI tumour cell line growth inhibition, 48 h
[1] = system: HT29 colon
[2] = system: OVCAR-4 ovarian
[3] = system: SNB-19 CNS
[4] = system: SN12C renal
[5] = system: XF 498 CNS
[6] = system: LXFL 529 NSCLC
[7] = system: ACHN renal
[8] = system: K-562 leukemia
[9] = system: SK-MEL-28 melanoma
[10] = system: RXF-631 renal
[11] = system: 786-0 renal
[12] = system: SK-MEL-5 melanoma
[13] = system: DMS 273 small cell lung
[14] = system: UO-31 renal
[15] = system: A498 renal
[16] = system: HOP-62 NSCLC
[17] = system: SW-620 colon
[18] = system: NCI-H522 lung
[19] = system: DLD-1 colon
[20] = system: CAKI-1 renal
[21] = system: KM20L2 colon
[22] = system: SR leukemia
[23] = system: A549 NSCLC
[24] = system: SNB-78 CNS
[25] = system: CCRF-CEM leukemia
[26] = system: U251 CNS
[27] = system: NCI-H460 lung
[28] = system: NCI-H226 lung
[29] = system: KM12 colon
[30] = system: HOP-92 NSCLC
[31] = system: SF-268 CNS
[32] = system: M19-MEL melanoma
[33] = system: SF-539 CNS
[34] = system: COLO 205 colon
[35] = system: HCT-116 colon
[36] = system: SK-OV-3 ovarian
[37] = system: HL-60(TB) leukemia
[38] = system: MALME-3M melanoma
[39] = system: EKVX NSCLC
[40] = system: M14 melanoma
[41] = system: HOP-18 NSCLC
[42] = system: OVCAR-3 ovarian
[43] = system: RXF 393 renal
[44] = system: SF-295 CNS
[45] = system: IGROV1 ovarian
[46] = system: MOLT-4 leukemia
[47] = system: SK-MEL-2 melanoma
[48] = system: UACC-257 melanoma
[49] = system: NCI-H23 lung
[50] = system: OVCAR-5 ovarian
[51] = system: OVCAR-8 ovarian
[52] = system: SNB-75 CNS
[53] = system: DMS 114 small cell lung
[54] = system: HCT-15 colon
[55] = system: RPMI-8226 leukemia
[56] = system: UACC-62 melanoma
[57] = system: TK-10 renal
[58] = system: HCC-2998 colon
[59] = system: LOX IMVI melanoma

Cc1cccc(NC(=O)c2c(N)[n+]([O-])c3ccccc3[n+]2[O-])c1
TGI [1]: 27.7 µM | TGI [2]: 23.3 µM | TGI [3]: 29.3 µM | TGI [4]: 17 µM | TGI [5]: 24.5 µM | TGI [6]: 22.9 µM | TGI [7]: 29.9 µM | TGI [8]: > 100 µM | TGI [9]: 20.7 µM | TGI [10]: 3.24 µM | TGI [11]: 17.9 µM | TGI [12]: 17 µM | TGI [13]: 22.1 µM | TGI [14]: 32.6 µM | TGI [15]: 29.8 µM | TGI [16]: 31.3 µM | TGI [17]: 21.4 µM | TGI [18]: 20 µM | TGI [19]: 26 µM | TGI [20]: 27.4 µM | TGI [21]: 30.5 µM | TGI [22]: > 100 µM | TGI [23]: 34.6 µM | TGI [24]: 35.4 µM | TGI [25]: > 100 µM | TGI [26]: 3.65 µM | TGI [27]: 28.1 µM | TGI [28]: 27 µM | TGI [29]: 30.3 µM | TGI [30]: 29.5 µM | TGI [31]: 22.8 µM | TGI [32]: 23.8 µM | TGI [33]: 16.4 µM | TGI [34]: 27.2 µM | TGI [35]: 20.3 µM | TGI [36]: 63 µM | TGI [37]: 56.7 µM | TGI [38]: 27.1 µM | TGI [39]: 31.3 µM | TGI [40]: 24.9 µM | TGI [41]: 32.2 µM | TGI [42]: 29.1 µM | TGI [43]: 13.3 µM | TGI [44]: 23.3 µM | TGI [45]: 21.5 µM | TGI [46]: 81 µM | TGI [47]: 23.3 µM | TGI [48]: 24.4 µM | TGI [49]: 23.4 µM | TGI [50]: 42.3 µM | TGI [51]: 32.3 µM | TGI [52]: 30.2 µM

CC1(Cl)C(=O)NC(=O)N([C@H]2C[C@H](O)[C@@H](CO)O2)C1N=[N+]=[N-] (stereo partly drawn)
TGI [1]: > 100 µM | TGI [53]: > 100 µM | TGI [2]: > 100 µM | TGI [3]: > 100 µM | TGI [4]: > 100 µM | TGI [5]: > 100 µM | TGI [6]: > 100 µM | TGI [7]: > 100 µM | TGI [8]: > 100 µM | TGI [9]: > 100 µM | TGI [10]: > 100 µM | TGI [11]: > 100 µM | TGI [54]: > 100 µM | TGI [12]: > 100 µM | TGI [13]: > 100 µM | TGI [14]: > 100 µM | TGI [15]: > 100 µM | TGI [16]: > 100 µM | TGI [17]: > 100 µM | TGI [18]: > 100 µM | TGI [19]: > 100 µM | TGI [20]: > 100 µM | TGI [21]: > 100 µM | TGI [22]: > 100 µM | TGI [23]: > 100 µM | TGI [24]: > 100 µM | TGI [25]: > 100 µM | TGI [26]: > 100 µM | TGI [27]: > 100 µM | TGI [28]: > 100 µM | TGI [29]: > 100 µM | TGI [30]: > 100 µM | TGI [31]: > 100 µM | TGI [32]: > 100 µM | TGI [33]: > 100 µM | TGI [34]: > 100 µM | TGI [35]: > 100 µM | TGI [36]: > 100 µM | TGI [55]: > 100 µM | TGI [37]: > 100 µM | TGI [38]: > 100 µM | TGI [39]: > 100 µM | TGI [40]: > 100 µM | TGI [56]: > 100 µM | TGI [41]: > 100 µM | TGI [42]: > 100 µM | TGI [43]: > 100 µM | TGI [44]: > 100 µM | TGI [57]: > 100 µM | TGI [45]: > 100 µM | TGI [46]: > 100 µM | TGI [58]: > 100 µM | TGI [47]: > 100 µM | TGI [48]: > 100 µM | TGI [49]: > 100 µM | TGI [59]: > 100 µM | TGI [50]: > 100 µM | TGI [51]: > 100 µM | TGI [52]: > 100 µM

COc1ccc(-c2cc(=O)c3c(O)c(O)c(OC)cc3o2)cc1O
TGI [1]: > 100 µM | TGI [2]: > 100 µM | TGI [3]: > 100 µM | TGI [4]: > 100 µM | TGI [5]: > 100 µM | TGI [6]: > 100 µM | TGI [7]: > 100 µM | TGI [8]: > 100 µM | TGI [9]: > 100 µM | TGI [10]: > 100 µM | TGI [11]: > 100 µM | TGI [54]: > 100 µM | TGI [12]: > 100 µM | TGI [13]: > 100 µM | TGI [14]: > 100 µM | TGI [15]: > 100 µM | TGI [16]: > 100 µM | TGI [17]: > 100 µM | TGI [18]: > 100 µM | TGI [19]: > 100 µM | TGI [20]: > 100 µM | TGI [21]: > 100 µM | TGI [22]: > 100 µM | TGI [23]: > 100 µM | TGI [25]: > 100 µM | TGI [26]: > 100 µM | TGI [27]: > 100 µM | TGI [28]: > 100 µM | TGI [29]: > 100 µM | TGI [30]: > 100 µM | TGI [31]: > 100 µM | TGI [32]: > 100 µM | TGI [33]: > 100 µM | TGI [34]: > 100 µM | TGI [35]: > 100 µM | TGI [36]: > 100 µM | TGI [55]: > 100 µM | TGI [37]: > 100 µM | TGI [38]: > 100 µM | TGI [39]: > 100 µM | TGI [40]: > 100 µM | TGI [56]: > 100 µM | TGI [41]: > 100 µM | TGI [42]: > 100 µM | TGI [43]: > 100 µM | TGI [44]: > 100 µM | TGI [57]: > 100 µM | TGI [45]: > 100 µM | TGI [46]: > 100 µM | TGI [58]: > 100 µM | TGI [47]: > 100 µM | TGI [48]: > 100 µM | TGI [49]: > 100 µM | TGI [59]: > 100 µM | TGI [50]: > 100 µM | TGI [51]: > 100 µM | TGI [52]: > 100 µM
